Test results published in patent US20230019491A1, “PYRIMIDINE TBK/IKKe INHIBITOR COMPOUNDS AND USES THEREOF” (Merck Patent GmbH, priority 2017, published 2023).
Where a name gives a salt, the structure may show the parent alone.

Columns and labels:
[1] = molecular target: T1, IKKε (Homo sapiens, UniProt Q14164); assay: IKKε biochemical assay; conditions: 10 point 1:4 dose response, 30 uM top concentration, 90 min at 25° C., LabChip EZ Reader II; read-out: IKKε_IC50
T1 sequence (Q14164 1-716): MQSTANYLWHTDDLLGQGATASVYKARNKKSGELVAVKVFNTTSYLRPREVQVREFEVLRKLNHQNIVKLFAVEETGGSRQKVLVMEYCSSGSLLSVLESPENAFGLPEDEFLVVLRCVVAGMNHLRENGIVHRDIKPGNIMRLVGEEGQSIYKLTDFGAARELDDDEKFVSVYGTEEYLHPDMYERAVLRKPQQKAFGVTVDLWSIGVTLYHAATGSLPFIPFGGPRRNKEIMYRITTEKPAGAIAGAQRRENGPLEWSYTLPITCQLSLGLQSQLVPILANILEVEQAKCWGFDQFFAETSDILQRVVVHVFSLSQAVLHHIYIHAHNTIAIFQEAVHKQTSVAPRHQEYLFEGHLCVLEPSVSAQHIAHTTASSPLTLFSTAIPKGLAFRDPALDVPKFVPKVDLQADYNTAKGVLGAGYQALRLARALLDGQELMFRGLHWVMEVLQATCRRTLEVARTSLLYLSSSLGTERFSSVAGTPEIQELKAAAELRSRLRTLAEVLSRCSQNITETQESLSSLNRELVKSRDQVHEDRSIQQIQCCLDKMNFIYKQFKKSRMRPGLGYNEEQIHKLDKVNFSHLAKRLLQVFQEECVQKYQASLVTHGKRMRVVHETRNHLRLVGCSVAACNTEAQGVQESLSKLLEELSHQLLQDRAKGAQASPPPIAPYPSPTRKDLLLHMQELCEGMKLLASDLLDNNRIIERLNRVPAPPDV
Summary of the method: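 Compounds in 1% DMSO final were incubated with IKKε enzyme and substrate at 25° C. for 90 min, then stopped. Substrate and product peaks were resolved by LabChip EZ Reader II mobility-shift read-out. Staurosporine at 10 uM final served as the full-inhibition control.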

[2] = molecular target: T2, TBK1 (Homo sapiens, UniProt Q9UHD2); assay: TBK biochemical assay; conditions: 10 point 1:4 dose response, 30 uM top concentration, 90 min at 25° C., LabChip EZ Reader II; read-out: TBK1_IC50
T2 sequence (Q9UHD2 1-729): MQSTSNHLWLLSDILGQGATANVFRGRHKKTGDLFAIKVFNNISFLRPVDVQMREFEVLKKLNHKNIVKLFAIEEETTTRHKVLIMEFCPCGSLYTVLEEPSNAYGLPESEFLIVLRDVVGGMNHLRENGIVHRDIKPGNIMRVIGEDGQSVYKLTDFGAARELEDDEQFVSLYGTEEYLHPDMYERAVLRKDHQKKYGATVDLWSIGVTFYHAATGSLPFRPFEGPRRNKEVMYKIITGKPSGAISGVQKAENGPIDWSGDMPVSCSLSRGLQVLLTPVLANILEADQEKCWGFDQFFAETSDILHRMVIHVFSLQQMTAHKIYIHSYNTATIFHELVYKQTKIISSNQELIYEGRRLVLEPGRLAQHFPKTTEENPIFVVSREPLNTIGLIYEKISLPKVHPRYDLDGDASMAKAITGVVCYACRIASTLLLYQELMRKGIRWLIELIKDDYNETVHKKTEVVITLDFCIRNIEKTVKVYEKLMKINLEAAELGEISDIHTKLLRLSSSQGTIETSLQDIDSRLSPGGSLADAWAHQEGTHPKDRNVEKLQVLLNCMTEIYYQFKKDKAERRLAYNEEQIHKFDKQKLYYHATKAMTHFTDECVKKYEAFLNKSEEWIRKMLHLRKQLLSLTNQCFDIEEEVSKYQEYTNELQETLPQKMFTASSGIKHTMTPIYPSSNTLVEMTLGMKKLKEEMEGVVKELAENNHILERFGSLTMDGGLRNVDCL
Summary of the method: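 Substrate and product were separated and quantified by microfluidic mobility-shift read (LabChip). 10 uM staurosporine served as the full-inhibition control, and the reference compound was tested from 1 uM final.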

What does the source list for COc1nc(Nc2nccc(-c3ccc(OC4CCN(C(=O)CO)CC4(F)F)c(C#N)c3)n2)ccc1C1CCN(C2COC2)CC1 (stereo not drawn) [Example 154, 2-[3,3-Difluoro-1-(2-hydroxy-acetyl)-piperidin-4-yloxy]-5-[2-(2-methoxy-1′-oxetan-3-yl-1′,2′,3′,4′,5′,6′-hexahydro-[3,4′]bipyridinyl-6-ylamino)-pyrimidin-4-yl]-benzonitrile]?
IC50 [1]: < 100 nM; IC50 [2]: < 100 nM

Which results are given for COc1nc(Nc2nccc(-c3ccc(OC4CN(C(=O)[C@@H](C)O)C4)c(C#N)c3)n2)ccc1N1CCN(C2COC2)CC1 [Example 176, 2-([1-[(2R)-2-hydroxypropanoyl]azetidin-3-yl]oxy)-5-[2-([6-methoxy-5-[4-(oxetan-3-yl)piperazin-1-yl]pyridin-2-yl]amino)pyrimidin-4-yl]benzonitrile]?
IC50 [1]: 1000 to 5000 nM; IC50 [2]: 100 to 1000 nM

With C[C@H](O)C(=O)N1CCC(Oc2ccc(-c3ccnc(Nc4ccc(C5CCN(C6COC6)CC5)cc4)n3)cc2C#N)C(F)(F)C1 (stereo partly drawn) [Example 212, 2-([3,3-difluoro-1-[(2S)-2-hydroxypropanoyl]piperidin-4-yl]oxy)-5-[2-([4-[1-(oxetan-3-yl)piperidin-4-yl]phenyl]amino)pyrimidin-4-yl]benzonitrile] as the molecule, how does the IC50 [1] read?
Its IC50 is less than 100 nM.

What about the IC50 [2] of the same molecule?
Its IC50 is less than 100 nM.

COc1nc(Nc2nccc(-c3ccc(OC4CCOCC4)c(C#N)c3)n2)ccc1C(=O)N1CCNC(=O)C1 [Example 6, 5-{2-[6-methoxy-5-(3-oxo-piperazine-1-carbonyl)-pyridin-2-ylamino]-pyrimidin-4-yl}-2-(tetrahydro-pyran-4-yloxy)-benzonitrile] was tested. Which IC50 [1] did it give?
The IC50 was less than 100 nM.

What about the IC50 [2] of the same molecule?
The IC50 was less than 100 nM.

CN1CCN(c2ccc(Nc3nccc(-c4ccc(OC5CCN(C)C5)c(C#N)c4)n3)nc2)CC1 (stereo not drawn) [Example 82, 5-(2-[[5-(4-methylpiperazin-1-yl)pyridin-2-yl]amino]pyrimidin-4-yl)-2-[(1-methylpyrrolidin-3-yl)oxy]benzonitrile hydrochloride] was tested. Which IC50 [1] did it give?
Its IC50 is 1000 to 5000 nM.

What about the IC50 [2] of the same molecule?
The IC50 was greater than 5000 nM.

Which results are given for COc1nc(Nc2nccc(-c3ccc(O[C@H]4CCN(C(=O)C(C)O)C[C@H]4F)c(C#N)c3)n2)ccc1N1CCN(C2COC2)CC1 (stereo partly drawn) [Example 190, 2-[[(3R,4S)-3-fluoro-1-(2-hydroxypropanoyl)piperidin-4-yl]oxy]-5-[2-([6-methoxy-5-[4-(oxetan-3-yl)piperazin-1-yl]pyridin-2-yl]amino)pyrimidin-4-yl]benzonitrile]?
IC50 [1]: < 100 nM; IC50 [2]: < 100 nM

COc1nc(Nc2nccc(-c3ccc(OC4CCN(C(=O)[C@@H](C)O)CC4(F)F)c(C#N)c3)n2)ccc1C(=O)N(C)C (stereo partly drawn) [Example 325, 6-([4-[3-cyano-4-([3,3-difluoro-1-[(2R)-2-hydroxypropanoyl]piperidin-4-yl]oxy)phenyl]pyrimidin-2-yl]amino)-2-methoxy-N,N-dimethylpyridine-3-carboxamide] was tested. Which IC50 [1] did it give?
The IC50 was less than 100 nM.

What about the IC50 [2] of the same molecule?
Its IC50 is less than 100 nM.

Which results are given for COc1nc(Nc2nccc(-c3ccc(O[C@H]4CCN(C(=O)[C@H](C)O)C[C@H]4F)c(C#N)c3)n2)ccc1N1CCN(C2COC2)CC1 [Example 199, 2-[[(3R,4S)-3-fluoro-1-[(2S)-2-hydroxypropanoyl]piperidin-4-yl]oxy]-5-[2-([6-methoxy-5-[4-(oxetan-3-yl)piperazin-1-yl]pyridin-2-yl]amino)pyrimidin-4-yl]benzonitrile]?
IC50 [1]: < 100 nM; IC50 [2]: < 100 nM

COc1nc(Nc2ncc(C)c(-c3ccc(OC4CCN(C(=O)[C@H](C)O)CC4(F)F)c(C#N)c3)n2)ccc1N1CCN(C2COC2)CC1 (stereo partly drawn) [Example 283, 2-([33-difluoro-1-[(2S)-2-hydroxypropanoyl]piperidin-4-yl]oxy)-5-[2-([6-methoxy-5-[4-(oxetan-3-yl)piperazin-1-yl]pyridin-2-yl]amino)-5-methylpyrimidin-4-yl]benzonitrile] was tested. Which IC50 [1] did it give?
Its IC50 is less than 100 nM.

And the IC50 [2]?
Its IC50 is less than 100 nM.

COc1cccc(Nc2nccc(-c3ccc(OC4CCN(C(=O)c5n[nH]c(C)n5)CC4)c(C#N)c3)n2)n1 [Example 218, 5-[2-[(6-methoxypyridin-2-yl)amino]pyrimidin-4-yl]-2-[[1-(5-methyl-1H-1,2,4-triazole-3-carbonyl)piperidin-4-yl]oxy]benzonitrile] was tested. Which IC50 [1] did it give?
Its IC50 is less than 100 nM.

What about the IC50 [2] of the same molecule?
The IC50 was less than 100 nM.

COc1cc(Nc2nccc(-c3ccc(OC4CCN(C(=O)[C@H](C)O)CC4(F)F)c(C#N)c3)n2)ccc1C1CCN(C2COC2)CC1 (stereo partly drawn) [Example 311, 2-([3,3-difluoro-1-[(2S)-2-hydroxypropanoyl]piperidin-4-yl]oxy)-5-[2-([3-methoxy-4-[1-(oxetan-3-yl)piperidin-4-yl]phenyl]amino)pyrimidin-4-yl]benzonitrile] was tested. Which IC50 [1] did it give?
The IC50 was less than 100 nM.

And the IC50 [2]?
Its IC50 is less than 100 nM.

What does the source list for COc1cc(C(=O)N(C)C)ncc1Nc1nccc(-c2ccc(NC3CCOCC3)c(C#N)c2)n1 [Example 61, 5-[(4-[3-cyano-4-[(oxan-4-yl)amino]phenyl]pyrimidin-2-yl)amino]-4-methoxy-N,N-dimethylpyridine-2-carboxamide]?
IC50 [1]: 100 to 1000 nM; IC50 [2]: 100 to 1000 nM

For COc1cc(Nc2nccc(-c3ccc(OC4CCN(C(=O)[C@@H](C)O)CC4)c(C#N)c3)n2)cnc1N1CCN(C2COC2)CC1 [Example 321, 2-([1-[(2R)-2-hydroxypropanoyl]piperidin-4-yl]oxy)-5-[2-([5-methoxy-6-[4-(oxetan-3-yl)piperazin-1-yl]pyridin-3-yl]amino)pyrimidin-4-yl]benzonitrile], which IC50 [1] is on record?
The IC50 was less than 100 nM.

What about the IC50 [2] of the same molecule?
The IC50 was less than 100 nM.

What does the source list for COc1nc(Nc2nccc(-c3ccc(O[C@H]4CCN(C(=O)[C@@H](O)CO)C[C@@H]4F)c(C#N)c3)n2)ccc1N1CCN(C2COC2)CC1 [Example 197, 2-[(3S,4S)-1-((S)-2,3-Dihydroxy-propionyl)-3-fluoro-piperidin-4-yloxy]-5-{2 [6-methoxy-5-(4-oxetan-3-yl-piperazin-1-yl)-pyridin-2-ylamino]-pyrimidin-4-yl}-benzonitrile]?
IC50 [1]: < 100 nM; IC50 [2]: < 100 nM

Which IC50 [1] does the source give for COc1nc(Nc2nccc(-c3ccc(OC4CCOCC4)c(C#N)c3)n2)ccc1C(=O)NC[C@H](O)CO [Example 4, 6-{4-[3-Cyano-4-(tetrahydro-pyran-4-yloxy)-phenyl]-pyrimidin-2-ylamino}-N-((S)-23-dihydroxy-propyl)-2-methoxy-nicotinamide] here?
Its IC50 is less than 100 nM.

And the IC50 [2]?
The IC50 was less than 100 nM.

For COc1nc(Nc2nccc(-c3ccc(OC4CCOCC4)c(C#N)c3)n2)ccc1C(=O)NCCO [Example 2, 6-([4-[3-cyano-4-(oxan-4-yloxy)phenyl]pyrimidin-2-yl]amino)-N-(2-hydroxyethyl)-2-methoxypyridine-3-carboxamide], which IC50 [1] is on record?
Its IC50 is less than 100 nM.

What about the IC50 [2] of the same molecule?
The IC50 was less than 100 nM.

How did the IC50 [1] turn out when COc1nc(Nc2nccc(-c3ccc(O[C@@H]4CCN(C(=O)[C@H](C)O)C[C@H]4F)c(C#N)c3)n2)ccc1C1CCN(C2COC2)CC1 [Example 192, 2-[(3R,4R)-3-Fluoro-1-((S)-2-hydroxy-propionyl)-piperidin-4-yloxy]-5-[2-(2-methoxy-1′-oxetan-3-yl-1′,2′,3′,4′,5′,6′-hexahydro-[3,4′]bipyridinyl-6-ylamino)-pyrimidin-4-yl]-benzonitrile] was run?
The IC50 was less than 100 nM.

What about the IC50 [2] of the same molecule?
Its IC50 is less than 100 nM.

Which results are given for COc1nc(Nc2nccc(-c3ccc(OC4CCNCC4(F)F)c(C#N)c3)n2)ccc1N1CCN(C)CC1 (stereo not drawn) [Example 97, 2-[(3,3-difluoropiperidin-4-yl)oxy]-5-(2-[[6-methoxy-5-(4-methylpiperazin-1-yl)pyridin-2-yl]amino]pyrimidin-4-yl)benzonitrile]?
IC50 [1]: < 100 nM; IC50 [2]: < 100 nM
